Experimental data: patent US20160095865A1, “APPLICATION OF ENROFLOXACIN SALT IN PREPARATION OF ORAL PREPARATION FOR PIGS” (GUANGZHOU INSIGHTER BIOTECHNOLOGY CO., LTD., priority 2013, published 2016)
Structures can show the parent of a compound that is named as a salt.

Assays:
[1] = test system: duroc-landrace-yorkshire hybrid pigs; assay: Influence of enrofloxacin base, sodium salt and hydrochloride on palatability of pig feed (Embodiment 2); type: in vivo; details: compared with blank control group
Method: Enrofloxacin base, enrofloxacin sodium and enrofloxacin hydrochloride were respectively added in feed in each group. All the test pigs were synchronously fasted for 12 h before testing. The test pigs in each group were respectively subjected to free feed intake of feed containing enrofloxacin in different forms after the 12 h fast. […] Feed consumption of different test groups was subjected to statistics and the influence of different forms of the enrofloxacin added in the feed on the feed intake of the pigs was evaluated. The pure feed which was not added with the enrofloxacin or the salt thereof was taken as control.

sensitive bacteria = details: overwhelming majority of strains of sensitive bacteria; cited from earlier work
[2] = test system: pathogenic escherichia coli SGD strain; assay: Protection against escherichia coli artificial (challenge) infection in weaned piglets (Embodiment 9); type: in vivo, pigs; details: for Death rate: challenged control 60; for Incidence rate (%, calculated by diarrhea): challenged control 100
Method: The 33-day-old pigs were intramuscularly injected with pathogenic escherichia coli, the diarrhea and deaths of the pigs were observed, continuous observation was performed for one week, the onset and deaths were subjected to statistics, and the protection effects of the enrofloxacin in different forms against the pathogenic escherichia coli in the artificial infection were compared. Pure feed which was not added with the enrofloxacin in any form was taken as a control group, wherein one portion of pigs in the control group were intramuscularly injected with the pathogenic escherichia coli and was taken as the control group without administration but with challenge (the fifth group), and the remainder were not intramuscularly injected with the pathogenic escherichia coli and was taken as the control group without administration and without challenge (the sixth group).

[3] = Pharmacokinetic research in pigs, plasma concentration by HPLC (Embodiment 8); type: in vivo; details: piglets
Method: Jugular venous blood collection was performed at 30 min, 1 h, 2 h, 4 h, 8 h, 12 h and 24 h after administration. Plasma was separated, the concentration of the enrofloxacin in the plasma in the different test pigs after administration was determined by high-performance liquid chromatography respectively, and whether the difference in the concentration of the enrofloxacin in the plasma in each test group after administration was significant or not and whether the elimination rule of the enrofloxacin in blood was consistent or not was subjected to statistical analysis.

[4] = 100 ppm equivalent fed twice daily through a gastric tube according to feed intake, challenge 2.0 ×10^7 CFU/pig
[5] = 100 ppm in feed, challenge 2.0 ×10^7 CFU/pig i.m., one week

## CCN1CCN(c2cc3c(cc2F)c(=O)c(C(=O)O)cn3C2CC2)CC1 [enrofloxacin base, enrofloxacin]
[1]; 5 ppm in feed
  Decline in feed intake: 47.2%
[1]; 25 ppm in feed
  Decline in feed intake: 74.2%
[1]; 100 ppm in feed
  Decline in feed intake: 93.3%
Sensitive bacteria
  MIC: lower than 1 ug/ml
[2]; [4]
  Death rate: 0%
  Incidence rate (%, calculated by diarrhea): 0%

## CCN1CCN(c2cc3c(cc2F)c(=O)c(C(=O)[O-])cn3C2CC2)CC1.CCN1CCN(c2cc3c(cc2F)c(=O)c(C(=O)[O-])cn3C2CC2)CC1.[Cu+2] [enrofloxacin copper]
[3]; 30 min after 10 mg/kg body weight by gastric tube
  Plasma concentration (total of enrofloxacin and ciprofloxacin): 1.417 ± 0.169^A ug/ml
[3]; 1 h after 10 mg/kg body weight by gastric tube
  Plasma concentration (total of enrofloxacin and ciprofloxacin): 2.121 ± 0.198^B ug/ml
[3]; 2 h after 10 mg/kg body weight by gastric tube
  Plasma concentration (total of enrofloxacin and ciprofloxacin): 5.187 ± 0.558^C ug/ml
[3]; 4 h after 10 mg/kg body weight by gastric tube
  Plasma concentration (total of enrofloxacin and ciprofloxacin): 5.465 ± 0.529^D ug/ml
[3]; 8 h after 10 mg/kg body weight by gastric tube
  Plasma concentration (total of enrofloxacin and ciprofloxacin): 2.986 ± 0.234^E ug/ml
[3]; 12 h after 10 mg/kg body weight by gastric tube
  Plasma concentration (total of enrofloxacin and ciprofloxacin): 1.785 ± 0.215^F ug/ml
[3]; 24 h after 10 mg/kg body weight by gastric tube
  Plasma concentration (total of enrofloxacin and ciprofloxacin): 0.294 ± 0.044^G ug/ml
[2]; [5]
  Death rate: 0%
  Incidence rate (%, calculated by diarrhea): 0%

## CCN1CCN(c2cc3c(cc2F)c(=O)c(C(=O)O)cn3C2CC2)CC1 [enrofloxacin hydrochloride]
[1]; 5 ppm in feed, hydrochloride
  Decline in feed intake: 49.5%
[1]; 25 ppm in feed, hydrochloride
  Decline in feed intake: 73.4%
[1]; 100 ppm in feed, hydrochloride
  Decline in feed intake: 93.7%

## CCN1CCN(c2cc3c(cc2F)c(=O)c(C(=O)[O-])cn3C2CC2)CC1.[Ag+] [enrofloxacin silver]
[2]; [5]
  Death rate: 0%
  Incidence rate (%, calculated by diarrhea): 0%

## CCN1CCN(c2cc3c(cc2F)c(=O)c(C(=O)O)cn3C2CC2)CC1 [enrofloxacin sodium]
[1]; 5 ppm in feed
  Decline in feed intake: 50.8%
[1]; 25 ppm in feed
  Decline in feed intake: 73.1%
[1]; 100 ppm in feed
  Decline in feed intake: 94.1%

## CCN1CCN(c2cc3c(cc2F)c(=O)c(C(=O)[O-])cn3C2CC2)CC1.CCN1CCN(c2cc3c(cc2F)c(=O)c(C(=O)[O-])cn3C2CC2)CC1.[Zn+2] [enrofloxacin zinc]
[2]; [5]
  Death rate: 0%
  Incidence rate (%, calculated by diarrhea): 0%
